Data published in paper PMC9862819, “Structural Characterization of Murine Phosphodiesterase 5 Isoforms and Involvement of Cysteine Residues in Supramolecular Assembly” (International Journal of Molecular Sciences, 2023).
pIC50: −log10 of the molar value. Each block holds one molecule with its values, some of them ahead of it.

Key:
MmPDE5A3 [1] = molecular target: T1, MmPDE5A3 (Mus musculus, UniProt Q8CG03); assay: [3H]cGMP hydrolysis assay; also spectrophotometric thiol titration and native PAGE; format: biochemical; design: gene Pde5a; full-length MmPDE5A3 isoform (823 amino acids common to the three isoforms), 3XFLAG tag
MmPDE5A3 [2] = molecular target: T1, MmPDE5A3; design: gene Pde5a
MmPDE5A3 [3] = molecular target: T1, MmPDE5A3; assay: native PAGE conformational shift; [3H]cGMP hydrolysis; added protection of Cys with sildenafil; format: binding; design: gene Pde5a; full-length MmPDE5A3 isoform (823 amino acids common to the three isoforms), 3XFLAG tag

- pIC50 (MmPDE5A3 [1]): ~4.52
Compound: O=C(O)c1cc(SSc2ccc([N+](=O)[O-])c(C(=O)O)c2)ccc1[N+](=O)[O-] [DTNB, 5,5-dithio-bis-(2-nitrobenzoic acid)]

Compound: CCCc1nn(C)c2c(=O)[nH]c(-c3cc(S(=O)(=O)N4CCN(C)CC4)ccc3OCC)nc12 [Sild, sildenafil]
- native PAGE conformational shift and protection of Cys from DTNB titration (MmPDE5A3 [2]): the reactive Cys were close to the active site and were shielded by the inhibitor

Compound: Nc1nc2c(ncn2[C@@H]2O[C@@H]3COP(=O)(O)O[C@H]3[C@H]2O)c(=O)[nH]1 [cGMP]
- native PAGE conformational shift; [3H]cGMP hydrolysis; added protection of Cys w (MmPDE5A3 [3]): the conformation of D3 was also the main outcome of the binding of the substrate and inhibitor (cGMP and sildenafil
